Test results taken from ChEMBL document CHEMBL1201862, “PubChem BioAssay data set” (2004).
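Protocol summary: plate cells (96-well), add compound at 5 concentrations, incubate 48 h, interpolate endpoints linearly. Here, GI50 denotes the concentration required for 50% inhibition of growth.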 Active and inactive are the calls of the source. Rule as the data show it: active = GI50 up to about 1.1 µM and inactive = higher.

Assays:
Assay in all cases: NCI tumour cell line growth inhibition, 48 h
UACC-62 = test system: UACC-62
DU-145 = test system: DU-145
SNB-19 = test system: SNB-19
HCT-116 = test system: HCT-116
HCT-15 = test system: HCT-15
BT-549 = test system: BT-549
786-0 = test system: 786-0
MDA-MB-435 = test system: MDA-MB-435
SK-OV-3 = test system: SK-OV-3
K562 = test system: K562
MDA-MB-231 = test system: MDA-MB-231
OVCAR-4 = test system: OVCAR-4
SN12C = test system: SN12C
SNB-75 = test system: SNB-75
Hs-578T = test system: Hs-578T
MOLT-4 = test system: MOLT-4
NCI-H23 = test system: NCI-H23
A498 = test system: A498
ACHN = test system: ACHN
OVCAR-3 = test system: OVCAR-3
SF-268 = test system: SF-268
EKVX = test system: EKVX
SF-539 = test system: SF-539
SK-MEL-2 = test system: SK-MEL-2
KM12 = test system: KM12
UO-31 = test system: UO-31
NCI-H522 = test system: NCI-H522
COLO 205 = test system: COLO 205
HL-60 = test system: HL-60
LOX IMVI = test system: LOX IMVI
SR = test system: SR
IGROV-1 = test system: IGROV-1
T47D = test system: T47D
SK-MEL-5 = test system: SK-MEL-5
TK-10 = test system: TK-10
UACC-257 = test system: UACC-257
OVCAR-8 = test system: OVCAR-8
RXF 393 = test system: RXF 393
A549 = test system: A549
Malme-3M = test system: Malme-3M
U-251 = test system: U-251
NCI-H460 = test system: NCI-H460
NCI-H226 = test system: NCI-H226
SK-MEL-28 = test system: SK-MEL-28
HOP-92 = test system: HOP-92
OVCAR-5 = test system: OVCAR-5
RPMI-8226 = test system: RPMI-8226
CAKI-1 = test system: CAKI-1
PC-3 = test system: PC-3
HOP-62 = test system: HOP-62
M14 = test system: M14
SW-620 = test system: SW-620
HT-29 = test system: HT-29
SF-295 = test system: SF-295
NCI/ADR-RES = test system: NCI/ADR-RES
MCF7 = test system: MCF7
MDA-N = test system: MDA-N
CCRF-CEM = test system: CCRF-CEM
HCC 2998 = test system: HCC 2998

In the case of Clc1cccc(Cl)c1C(Nc1nncs1)Nc1nncs1, the GI50 (UACC-62) is reported as 67 µM (inactive), the GI50 (DU-145) is reported as 51.5 µM (inactive) and the GI50 (SNB-19) is reported as 52 µM (inactive). For the same molecule, the GI50 (HCT-116) was 28.6 µM (inactive), the GI50 (HCT-15) was 13 µM and the GI50 (BT-549) was 73.3 µM (inactive). For the same molecule, the GI50 (786-0) was 28.7 µM (inactive), the GI50 (MDA-MB-435) was 11.1 µM (inactive) and the GI50 (SK-OV-3) was 32 µM (inactive). For the same molecule, the GI50 (K562) was 31.7 µM (inactive), the GI50 (MDA-MB-231) was > 100 µM (inactive) and the GI50 (OVCAR-4) was 59.4 µM (inactive). The GI50 (SN12C) was 38.4 µM (inactive), the GI50 (SNB-75) was > 100 µM (inactive) and the GI50 (Hs-578T) was 71.3 µM (inactive). For the same molecule, the GI50 (MOLT-4) was 17.3 µM (inactive), the GI50 (NCI-H23) was 40.2 µM (inactive) and the GI50 (A498) was 49.2 µM (inactive). The GI50 (ACHN) was 73.6 µM (inactive), the GI50 (OVCAR-3) was 46.7 µM (inactive) and the GI50 (SF-268) was 81.7 µM (inactive). The GI50 (EKVX) was 43.9 µM (inactive), the GI50 (SF-539) was 23.9 µM (inactive) and the GI50 (SK-MEL-2) was 38.6 µM (inactive). The GI50 (KM12) was 27.7 µM (inactive), the GI50 (UO-31) was 62.7 µM (inactive) and the GI50 (NCI-H522) was 22.3 µM (inactive). For the same molecule, the GI50 (COLO 205) was 35.4 µM (inactive), the GI50 (HL-60) was 17.3 µM (inactive) and the GI50 (LOX IMVI) was 21.8 µM (inactive). For the same molecule, the GI50 (SR) was 4.84 µM (inactive), the GI50 (IGROV-1) was 55.3 µM (inactive) and the GI50 (T47D) was 56.8 µM (inactive). For the same molecule, the GI50 (SK-MEL-5) was 32.5 µM (inactive), the GI50 (TK-10) was 23.9 µM (inactive) and the GI50 (UACC-257) was 18.2 µM (inactive). The GI50 (OVCAR-8) was 33.8 µM (inactive), the GI50 (RXF 393) was 33.5 µM (inactive) and the GI50 (A549) was 48.9 µM (inactive). For the same molecule, the GI50 (Malme-3M) was 64.4 µM (inactive), the GI50 (U-251) was 41.1 µM (inactive) and the GI50 (NCI-H460) was 25 µM (inactive). The GI50 (NCI-H226) was 26.9 µM (inactive), the GI50 (SK-MEL-28) was 21.8 µM (inactive) and the GI50 (HOP-92) was > 100 µM (inactive). For the same molecule, the GI50 (OVCAR-5) was 36.5 µM (inactive), the GI50 (RPMI-8226) was 46 µM (inactive) and the GI50 (CAKI-1) was 75.3 µM (inactive). For the same molecule, the GI50 (PC-3) was 9.35 µM (inactive), the GI50 (HOP-62) was 50.4 µM (inactive) and the GI50 (M14) was 36.2 µM (inactive). The GI50 (SW-620) was 20.7 µM (inactive), the GI50 (HT-29) was 14.1 µM (inactive) and the GI50 (SF-295) was 38.2 µM (inactive). The GI50 (NCI/ADR-RES) was 50 µM (inactive), the GI50 (MCF7) was 36 µM (inactive) and the GI50 (MDA-N) was 9.27 µM (inactive).
With CC12c3c4ccc(C=O)c3Oc3ccc(C=O)c(c31)Oc1ccc(C=O)c(c12)O4 the GI50 (UACC-62) was > 25 µM (inactive), the GI50 (DU-145) was > 25 µM (inactive) and the GI50 (SNB-19) was > 25 µM (inactive). For the same molecule, the GI50 (HCT-116) was > 25 µM (inactive), the GI50 (HCT-15) was > 25 µM and the GI50 (BT-549) was > 25 µM (inactive). The GI50 (786-0) was > 25 µM (inactive), the GI50 (MDA-MB-435) was > 25 µM (inactive) and the GI50 (SK-OV-3) was > 25 µM (inactive). For the same molecule, the GI50 (K562) was > 25 µM (inactive), the GI50 (MDA-MB-231) was > 25 µM (inactive) and the GI50 (OVCAR-4) was > 25 µM (inactive). The GI50 (SN12C) was > 25 µM (inactive), the GI50 (SNB-75) was > 25 µM (inactive) and the GI50 (Hs-578T) was > 25 µM (inactive). The GI50 (MOLT-4) was > 25 µM (inactive), the GI50 (NCI-H23) was > 25 µM (inactive) and the GI50 (A498) was > 25 µM (inactive). For the same molecule, the GI50 (ACHN) was > 25 µM (inactive), the GI50 (OVCAR-3) was > 25 µM (inactive) and the GI50 (SF-268) was > 25 µM (inactive). For the same molecule, the GI50 (EKVX) was > 25 µM (inactive), the GI50 (SF-539) was > 25 µM (inactive) and the GI50 (SK-MEL-2) was > 25 µM (inactive). The GI50 (KM12) was > 25 µM (inactive), the GI50 (UO-31) was > 25 µM (inactive) and the GI50 (NCI-H522) was > 25 µM (inactive). For the same molecule, the GI50 (COLO 205) was > 25 µM (inactive), the GI50 (HL-60) was > 25 µM (inactive) and the GI50 (LOX IMVI) was > 25 µM (inactive). The GI50 (SR) was 7.11 µM (inactive), the GI50 (IGROV-1) was > 25 µM (inactive) and the GI50 (T47D) was > 25 µM (inactive). The GI50 (UACC-257) was > 25 µM (inactive), the GI50 (OVCAR-8) was > 25 µM (inactive) and the GI50 (RXF 393) was > 25 µM (inactive). The GI50 (A549) was > 25 µM (inactive), the GI50 (Malme-3M) was > 25 µM (inactive) and the GI50 (U-251) was > 25 µM (inactive). For the same molecule, the GI50 (NCI-H460) was > 25 µM (inactive), the GI50 (NCI-H226) was > 25 µM (inactive) and the GI50 (SK-MEL-28) was > 25 µM (inactive). The GI50 (HOP-92) was > 25 µM (inactive), the GI50 (OVCAR-5) was > 25 µM (inactive) and the GI50 (RPMI-8226) was > 25 µM (inactive). For the same molecule, the GI50 (CAKI-1) was > 25 µM (inactive), the GI50 (PC-3) was > 25 µM (inactive) and the GI50 (HOP-62) was > 25 µM (inactive). The GI50 (CCRF-CEM) was 17.5 µM (inactive), the GI50 (M14) was > 25 µM (inactive) and the GI50 (SW-620) was > 25 µM (inactive). The GI50 (HT-29) was > 25 µM (inactive), the GI50 (SF-295) was > 25 µM (inactive) and the GI50 (NCI/ADR-RES) was > 25 µM (inactive). The GI50 (MCF7) was > 25 µM (inactive) and the GI50 (MDA-N) was > 25 µM (inactive).
CCC(=O)OCc1ccc2oc(=O)c(C(=O)Oc3cncc(Cl)c3)cc2c1 was tested, and the GI50 (UACC-62) was 52.1 µM (inactive), the GI50 (DU-145) was > 100 µM (inactive) and the GI50 (SNB-19) was > 100 µM (inactive). The GI50 (HCT-116) was 80 µM (inactive), the GI50 (HCT-15) was 44 µM and the GI50 (BT-549) was > 100 µM (inactive). For the same molecule, the GI50 (786-0) was 74.1 µM (inactive), the GI50 (MDA-MB-435) was 70 µM (inactive) and the GI50 (SK-OV-3) was > 100 µM (inactive). For the same molecule, the GI50 (K562) was 20.6 µM (inactive), the GI50 (MDA-MB-231) was > 100 µM (inactive) and the GI50 (OVCAR-4) was > 100 µM (inactive). For the same molecule, the GI50 (SN12C) was 42.7 µM (inactive), the GI50 (SNB-75) was 79.8 µM (inactive) and the GI50 (Hs-578T) was > 100 µM (inactive). The GI50 (MOLT-4) was 30 µM (inactive), the GI50 (NCI-H23) was 52.2 µM (inactive) and the GI50 (ACHN) was > 100 µM (inactive). For the same molecule, the GI50 (OVCAR-3) was > 100 µM (inactive), the GI50 (SF-268) was > 100 µM (inactive) and the GI50 (EKVX) was > 100 µM (inactive). For the same molecule, the GI50 (SF-539) was > 100 µM (inactive), the GI50 (SK-MEL-2) was > 100 µM (inactive) and the GI50 (KM12) was > 100 µM (inactive). For the same molecule, the GI50 (UO-31) was 83.8 µM (inactive), the GI50 (NCI-H522) was 29.2 µM (inactive) and the GI50 (COLO 205) was 71.6 µM (inactive). For the same molecule, the GI50 (LOX IMVI) was > 100 µM (inactive), the GI50 (SR) was 20.8 µM (inactive) and the GI50 (IGROV-1) was > 100 µM (inactive). The GI50 (T47D) was 98.6 µM (inactive), the GI50 (SK-MEL-5) was > 100 µM (inactive) and the GI50 (TK-10) was 97.5 µM (inactive). The GI50 (UACC-257) was > 100 µM (inactive), the GI50 (OVCAR-8) was > 100 µM (inactive) and the GI50 (RXF 393) was 37.4 µM (inactive). For the same molecule, the GI50 (A549) was > 100 µM (inactive), the GI50 (Malme-3M) was 66.7 µM (inactive) and the GI50 (U-251) was > 100 µM (inactive). The GI50 (NCI-H460) was > 100 µM (inactive), the GI50 (NCI-H226) was > 100 µM (inactive) and the GI50 (SK-MEL-28) was > 100 µM (inactive). The GI50 (HOP-92) was 63.2 µM (inactive), the GI50 (OVCAR-5) was > 100 µM (inactive) and the GI50 (RPMI-8226) was > 100 µM (inactive). The GI50 (HCC 2998) was 35.6 µM (inactive), the GI50 (CAKI-1) was > 100 µM (inactive) and the GI50 (PC-3) was 46 µM (inactive). The GI50 (HOP-62) was > 100 µM (inactive), the GI50 (CCRF-CEM) was < 0.01 µM (active) and the GI50 (M14) was > 100 µM (inactive). The GI50 (SW-620) was > 100 µM (inactive), the GI50 (HT-29) was 76 µM (inactive) and the GI50 (SF-295) was > 100 µM (inactive). The GI50 (NCI/ADR-RES) was > 100 µM (inactive), the GI50 (MCF7) was 76.4 µM (inactive) and the GI50 (MDA-N) was > 100 µM (inactive).
